Source: patent US11814643B2, “Enhanced sleeping beauty transposons, kits and methods of transposition” (Max-Delbrück-Centrum für Molekulare Medizin in der …, priority 2016, dated 2023)

Experiments:
HeLa cells = assay: Transposition assay of neo-marked mutated transposon constructs; format: cell-based
Text: FIG. 4 Enhanced binding affinity at the inner DR improves Sleeping Beauty transposition. On the left, schematics of various neo-marked, mutated transposon constructs are depicted. On the right, the respective transpositional activities are shown in comparison to wild type transposon (construct 1), set as 100%. A. Composite DRs were created by changing either the PAI (black box) or the RED (grey box) recognition motifs into a high-affinity binding site (CAST-5) selected by the CASTing experiment (marked by stars at the PAI and stripped at the RED recognition motifs). B. The CAST-5 sequence (SEQ ID NO: 24 or 25) was used to replace only the PAI recognition motif, while the rest of the DR was wild type.
Altering the affinity of the binding sites might challenge the ordered assembly process occurring during transposition of a SB transposon. Thus, a series of transposon versions were constructed where 12DR and/or 14DR motifs were replaced by CASTing selected, high affinity binding sites (FIG. 4A), and the various constructs were subjected to transposition assays. […] Alternatively, the negative effect of CAST-5 on transposition could, at least partially, be accounted to its preferential selection for PAI binding, while compromising its RED function. Indeed, the CAST sequences are predicted to be sub-optimal for RED interaction, including the ability to distinguish between inner vs outer positions (FIG. 2). To distinguish between the two scenarios, we generated CAST-5/wt hybrids, where CAST-5 was replacing PAI only, otherwise kept the DRs wild type (wt). Again, we tested the impact of the hybrid motifs on transposition in various combinations. […]
HeLa cells were grown in DMEM (GIBCO BRL, Germany) supplemented with 10% Fecal Calf Serum Gold (FCS Gold) (PAA, Germany) and 1% antimycotic antibiotic (Invitrogen, Germany). […] After 3 weeks of selection, colonies were stained and counted as described in Ivics et al., Cell 1997. […]

SB transposition = assay: Transposition assay with inhibition of cathepsin or HSP90; format: cell-based; details: cathepsin inhibition; E64D 20 μM vs control
Experimental: In order to monitor transcriptional changes activated by the transposase, a genome-wide transcriptional study was performed (HeLa, Affymetrix). […] While HSPA2, a variant of the heat shock protein HSP70, is a member of the stress response, cathepsins are lysosomal proteases and have a vital role in mammalian cellular turnover. […] In addition, by mitigating the cellular stress response induction of the apoptotic signalling is moderated and cell viability improved.
FIG. 6 A. Effect of E64D (an inhibitor of cathepsins, cystein proteases and calpain) on SB transposition. Transposition assay, (20 μM, right side; control, left side). RNAi approach against cathepsin(s) is expected to yield a similar improvement. B. Differential expression of host genes in the presence oft the transposase (HeLa, Affymetrix). […] Cathepsins (CTs) degrade polypeptides and are distinguished by substrate specificities (CTSH, CTSF, CTS2).

Row | Compound | transpositional activity in comparison to wild type transposon (set as 100%) (HeLa cells; 12DRs replaced by CAST-5 motif) [%] | transpositional activity in comparison to wild type transposon (set as 100%) (HeLa cells; 14DRs replaced by CAST-5 motif) [%] | transpositional activity in comparison to wild type transposon (set as 100%) (HeLa cells; all the four DRs changed to CAST-5) [%] | effect on SB transposition (SB transposition)
1 | CAST-5: high-affinity SB transposase binding site selected by CASTing; 12DR SEQ ID NO: 24, 14DR SEQ ID NO: 25 (chain 1 GTGACGACCCCAAGTGTACATACACGCGCC; chain 2 GTGACGACCCCAAGTGTACATACACGCGCC; listed as DNA, chemistry not fully specified) | 65 | 3 | 2.2 | 
2 | CCOC(=O)[C@H]1O[C@@H]1C(=O)N[C@@H](CC(C)C)C(=O)NCCC(C)C [E64D] |  |  |  | improvement
